From ChEMBL document CHEMBL5728495, “Substituted isoindolin-1-ones and 2,3-dihydro-1h-pyrrolo[3,4-c]pyridin-1-ones as HPK1 antagonists” (2021)
pIC50: −log10 of the molar value.

Biological target: Mitogen-activated protein kinase kinase kinase kinase 1 (Homo sapiens, UniProt Q92918)
Test: Biochemical Enzyme Assay: HPK1 biochemical enzyme assay: HPK1 enzyme inhibition was measured using a microfluidic mobility shift assay. […] Test compounds were titrated in ten point curves (top final assay concentration 3 μM), and preincubated with enzyme/substrate mix for 30 min prior to initiation of the reaction by addition of ATP (1 mM final concentration) and substrate (1 μM final concentration; Carna Biosciences) diluted in assay buffer supplemented by MgCl2 (final assay concentration of 5 mM). Following 60 min incubation at RT, the reaction was terminated by addition of 60 µl/well termination buffer (Carna Biosciences) and signal determination using aCaliper EZ Reader (Perkin Elmer, UK).

Sequence of Mitogen-activated protein kinase kinase kinase kinase 1 (Q92918 whole entry): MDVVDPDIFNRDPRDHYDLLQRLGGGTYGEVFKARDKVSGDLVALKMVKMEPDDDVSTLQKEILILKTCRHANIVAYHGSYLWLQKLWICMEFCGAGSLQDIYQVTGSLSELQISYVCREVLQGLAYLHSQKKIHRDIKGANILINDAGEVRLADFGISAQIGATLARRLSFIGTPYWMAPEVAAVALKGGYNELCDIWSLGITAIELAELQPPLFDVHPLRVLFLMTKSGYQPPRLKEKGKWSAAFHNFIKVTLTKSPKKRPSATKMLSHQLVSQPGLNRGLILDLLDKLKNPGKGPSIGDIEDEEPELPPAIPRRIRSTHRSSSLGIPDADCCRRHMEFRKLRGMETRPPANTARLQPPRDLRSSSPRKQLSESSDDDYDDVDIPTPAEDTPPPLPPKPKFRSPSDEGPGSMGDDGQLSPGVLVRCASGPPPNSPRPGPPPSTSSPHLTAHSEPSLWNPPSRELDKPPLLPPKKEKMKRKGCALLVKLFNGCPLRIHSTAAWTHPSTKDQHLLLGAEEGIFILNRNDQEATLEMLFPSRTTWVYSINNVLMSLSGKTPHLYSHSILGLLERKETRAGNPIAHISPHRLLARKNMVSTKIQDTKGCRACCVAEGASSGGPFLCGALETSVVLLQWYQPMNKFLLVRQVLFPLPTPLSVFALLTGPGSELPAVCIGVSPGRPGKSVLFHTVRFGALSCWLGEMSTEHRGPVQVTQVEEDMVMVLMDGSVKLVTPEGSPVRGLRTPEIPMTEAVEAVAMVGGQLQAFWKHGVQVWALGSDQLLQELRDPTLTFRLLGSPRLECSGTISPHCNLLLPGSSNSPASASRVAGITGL

Row | SMILES | pIC50
1 | COCC1(O)CCN(c2ccc(Nc3ccc(-c4cnc5cc(F)ccn45)c4c3C(=O)NC4)nc2)CC1 | > 7.00
2 | O=C1NCc2c(-c3cnc4cc(F)ccn34)ccc(Nc3ccc([C@]4(O)CCOC4)cn3)c21 | > 7.00
3 | Cn1ccc2c(-c3ccc(Nc4ccc(N5CCO[C@H](C(C)(C)O)C5)cn4)c4c3CNC4=O)ncnc21 | > 7.00
4 | Cn1ccc2c(-c3ncc(Nc4ccc(N5CCOCC5)cn4)c4c3CNC4=O)ccnc21 | > 7.00
5 | CN(C)C[C@H]1CN(c2ccc(Nc3cnc(-c4ccnc5c4ccn5C)c4c3C(=O)NC4)nc2)CCO1 | > 7.00
6 | CN(C)CCc1nc(Nc2ccc(-c3cnc4cc(F)ccn34)c3c2C(=O)NC3)ccc1[C@H]1CCOC1 | > 7.00
7 | CN(C)CCc1nc(Nc2ccc(-c3cnc4cc(F)ccn34)c3c2C(=O)NC3)ccc1[C@@H]1CCOC1 | > 7.00
8 | Cc1ccn2c(-c3ccc(Nc4ccc(N5CCC[C@](O)(CN(C)C)C5)cn4)c4c3CNC4=O)cnc2c1F | > 7.00
9 | C[C@@H]1CCn2ncc(-c3ccc(Nc4ccc(N5CCN(C)CC5)cn4)c4c3CNC4=O)c2C1 | > 7.00
10 | COc1cc(Nc2ccc(-c3ccnc4c3ccn4C)c3c2C(=O)NC3)ncc1N1CCC(O)CC1 | > 7.00
11 | O=C1NCc2c(-c3cnc4ccccn34)ncc(Nc3ccc(N4CC[C@@H](F)[C@H](O)C4)cn3)c21 | > 7.00
12 | CN(C)C[C@H]1CN(c2ccc(Nc3ccc(-c4cnc5cc(Cl)ccn45)c4c3C(=O)NC4)nc2)CCO1 | > 7.00
13 | CC(C)(NC1CC1)C1CN(c2ccc(Nc3ccc(-c4cnc5cc(F)ccn45)c4c3C(=O)NC4)nc2)CCO1 (stereo unspecified) | > 7.00
14 | O=C1NCc2c(-c3cnc4cc(F)ccn34)ccc(Nc3ccc([C@@]4(O)CCOC4)cn3)c21 | > 7.00
15 | Cn1ccc2c(-c3ccc(Nc4ccc(N5CCO[C@@H](C(C)(C)O)C5)cn4)c4c3CNC4=O)ncnc21 | > 7.00
16 | COC1(CO)CCN(c2ccc(Nc3ccc(-c4cnc5cc(F)ccn45)c4c3C(=O)NC4)nc2)CC1 | > 7.00
17 | Cc1ccn2c(-c3ccc(Nc4ccc(N5CCC[C@@](O)(CN(C)C)C5)cn4)c4c3CNC4=O)cnc2c1F | > 7.00
18 | CCN(C)Cc1nc(Nc2ccc(-c3cnc4cc(F)ccn34)c3c2C(=O)NC3)ccc1[C@H]1CCOC1 | > 7.00
19 | O=C1NCc2c(-c3cnc4ccccn34)ncc(Nc3ccc(C4(O)CCOCC4)cn3)c21 | > 7.00
20 | Cc1cc(Nc2ccc(N3CCC(O)CC3)cn2)c2c(c1-c1cccc3c1ccn3C)CNC2=O | > 7.00
21 | CN(C)C1(c2ccc(Nc3ccc(-c4cnc5cc(F)ccn45)c4c3C(=O)NC4)nc2)CCOCC1 | > 7.00
22 | CN1CC[C@H](c2ccc(Nc3cnc(-c4ccnc5c4ccn5C)c4c3C(=O)NC4)nc2)CC1=O | > 7.00
23 | Cn1ccc2c(-c3ncc(Nc4ccc(N5CCC(C)(O)CC5)cn4)c4c3CNC4=O)ccnc21 | > 7.00
24 | CN(C)C[C@@H]1CN(c2ccc(Nc3cnc(-c4ccnc5c4ccn5C)c4c3C(=O)NC4)nc2)CCO1 | > 7.00
25 | O=C1NCc2c(-c3cnc4cc(C(F)F)ccn34)ccc(Nc3ccc([C@]4(O)CCOC4)cn3)c21 | > 7.00
26 | CN1CC[C@@H](c2ccc(Nc3cnc(-c4ccnc5c4ccn5C)c4c3C(=O)NC4)nc2)CC1=O | > 7.00
